Data: article PMC10184130
Read-outs that look alike come from different tables or passages of the source.

Assays:
human C1s = target: T1, human C1s (Homo sapiens, UniProt P09871); assay: Human C1s enzyme assay; type: biochemical; settings: 95% confidence intervals in parentheses
T1 construct: Recombinant human C1s (358–688 aa) fused with both the N-terminal IgG signal peptide; IgG signal peptide (N); His tag (C); made in house; host or cells: HEK293 cells
T1 sequence (P09871 358-688): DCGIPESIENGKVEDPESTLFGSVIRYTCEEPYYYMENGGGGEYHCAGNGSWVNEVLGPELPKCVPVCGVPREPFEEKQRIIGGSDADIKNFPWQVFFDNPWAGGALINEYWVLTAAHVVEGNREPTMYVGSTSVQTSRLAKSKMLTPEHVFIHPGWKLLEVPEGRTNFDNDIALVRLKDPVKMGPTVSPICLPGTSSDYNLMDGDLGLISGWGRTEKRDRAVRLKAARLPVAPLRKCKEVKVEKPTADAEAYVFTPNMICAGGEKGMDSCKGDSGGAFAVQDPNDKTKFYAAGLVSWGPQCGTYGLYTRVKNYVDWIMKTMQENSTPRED
Experimental: Recombinant human C1s (358–688 aa) fused with both the N-terminal IgG signal peptide and the C-terminal His tag was expressed in HEK293 cells and purified. The assay was performed in a 384-well clear plate in a total volume of 20 μL of an assay buffer 1 [50 mmol/L Tris–HCl (pH 7.5), 150 mmol/L NaCl, 0.01% (w/v) Tween 20, and 0.01% (w/v) BSA]. Compounds were dissolved in DMSO and diluted to various concentrations. After 20 nL of compound solution was added to the plate, 10 μL of substrate solution containing a 250 μmol/L Z-Lys-SBzl peptide (Watanabe Chemical, Hiroshima, Japan) and 250 μmol/L DTNB (5,5′-dithiobis(2-nitrobenzoic acid)) (Sigma, MO, USA) was added to the plate. Then, 8 nmol/L human C1s was added to the plate and incubated at room temperature for 60 min. The absorbance at 405 nm was detected using an EnVision multilabel plate reader. […] The IC50 values were calculated using IDBS XLfit software.

mouse C1s = target: T2, mouse C1s (Mus musculus, UniProt Q8CG14); assay: Mouse C1s enzyme assay; type: biochemical; settings: supplementary csv
T2 construct: Recombinant mouse C1s (22–694 aa) fused with both the N-terminal IgG signal peptide; IgG signal peptide (N); His tag (C); made in house; host or cells: Expi293 cells
T2 sequence (Q8CG14 438-688 limits assumed): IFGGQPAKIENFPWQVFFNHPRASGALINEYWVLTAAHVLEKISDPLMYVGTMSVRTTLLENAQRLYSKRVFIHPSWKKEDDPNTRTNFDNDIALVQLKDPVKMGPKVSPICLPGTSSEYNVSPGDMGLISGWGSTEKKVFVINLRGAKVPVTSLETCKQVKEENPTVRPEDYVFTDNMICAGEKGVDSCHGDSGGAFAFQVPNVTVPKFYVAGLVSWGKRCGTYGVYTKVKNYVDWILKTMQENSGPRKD
T2 sequence (Q8CG14 16-437 partner limits assumed): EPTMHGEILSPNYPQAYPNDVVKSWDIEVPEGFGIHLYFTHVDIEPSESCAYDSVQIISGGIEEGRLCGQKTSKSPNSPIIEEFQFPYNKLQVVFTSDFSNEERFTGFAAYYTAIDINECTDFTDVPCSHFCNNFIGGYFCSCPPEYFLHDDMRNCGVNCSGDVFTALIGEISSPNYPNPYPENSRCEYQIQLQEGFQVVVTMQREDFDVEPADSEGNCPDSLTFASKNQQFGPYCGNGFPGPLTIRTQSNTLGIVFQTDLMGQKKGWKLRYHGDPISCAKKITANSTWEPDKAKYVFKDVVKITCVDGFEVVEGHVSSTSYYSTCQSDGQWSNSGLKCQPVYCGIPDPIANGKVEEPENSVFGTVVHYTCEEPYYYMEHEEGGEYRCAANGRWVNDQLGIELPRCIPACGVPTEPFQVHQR
Source text: Recombinant mouse C1s (22–694 aa) fused with both the N-terminal IgG signal peptide and the C-terminal His tag was expressed in Expi293 cells and purified. Mouse C1s was activated by recombinant human C1r prior to use. Mouse C1s assay conditions were the same as for human C1s, except that the enzyme solution concentration was 30 nmol/L.

[1] = target: T3, Human Multidrug Resistance 1 (MDR-1) Expressing Cells (Homo sapiens, UniProt P08183); assay: Membrane permeability with human MDR-1 expressing cells; type: in vitro ADME; settings: supplementary csv
T3 construct: expressed in transfected cells
Experimental: (§1) The transcellular transport study was performed as reported previously.[31] In brief, the cells were grown in an HTS Transwell 96-well permeable support (pore size of 0.4 μm, 0.143 cm^2 surface area) with a polyethylene terephthalate membrane (Corning Life Sciences, Lowell, MA, USA) at a density of 1.125 × 10^5 cells/well. The cells were preincubated with M199 at 37 °C for 30 min. Subsequently, transcellular transport was initiated by the addition of M199 to apical compartments containing 1 μmol/L test compounds and terminated by the removal of each assay plate after 2 h. The aliquots in the opposite compartments were subjected to measurement for compound concentration by LC–MS/MS. Permeability was calculated using the permeated compound concentration.

MDR1 (P-gp) = target: T4, MDR1 (P-gp) (Homo sapiens, UniProt P08183); assay: as above; type: in vitro ADME; settings: human; MDR1-expressing cells, 1 μmol/L, 2 h
T4 construct: expressed in transfected cells
Experimental: as §1

[2] = Pharmacokinetics analysis in mice (oral; plasma and brain); type: in vivo; settings: for AUC0-24h / Cmax / MRT: plasma; for concentration at 2 h / Kp at 2 h / concentration at 24 h: male, C57BL/6J, mouse, brain; for Kp at 2 h: read-out: Brain to plasma ratio 2 h
Experimental: Male C57BL/6J mice were purchased from The Jackson Laboratory Japan, Inc. (Kanagawa, Japan). […] The compound was dissolved in 10% DMSO/10% Cremophor EL/20% PEG400/60% 0.1 mol/L citric acid solution and administered orally at doses of 10, 30, or 100 mg/kg. Blood samples were collected into heparinized tubes at the designated time points (0.5, 1, 2, 4, 8, and 24 h postdosing), and brains were also collected at 2 and 24 h postdosing. Plasma was separated from the blood samples by centrifugation. The plasma and brain concentrations were quantified with high-performance liquid chromatography–tandem mass spectrometry. The lower limit of quantitation was 1 ng/mL for plasma and 5 ng/mL for brains.

Q: What does the source list for `Cc1cc([C@H]2CN(c3cc(F)c4c(N)nncc4c3)CCN2c2cccc(F)c2)no1` [Compound (R)-8, 8-Fluoro-6-[(3R)-4-(3-fluorophenyl)-3-(5-methyl-1,2-oxazol-3-yl)piperazin-1-yl]phthalazin-1-amine]?
A: IC50 (human C1s): 36 nM; IC50 (mouse C1s): 61 nM; MDR1 (A to B) [1]: 14 nm/s; Papp A→B at 2 h, 1 μmol/L (MDR1 (P-gp)): 1.4 ×10⁻⁶ cm/s; AUC0-24h ([2]; 10 mg/kg): 6017.8 ± 390.4 ng·h/mL; Cmax ([2]; 10 mg/kg): 1032.5 ± 173.0 ng/mL; MRT ([2]; 10 mg/kg): 4.31 ± 0.23 h; AUC0-24h ([2]; 30 mg/kg): 21928.6 ± 1428.2 ng·h/mL; Cmax ([2]; 30 mg/kg): 2583.3 ± 267.1 ng/mL; MRT ([2]; 30 mg/kg): 5.02 ± 0.18 h; AUC0-24h ([2]; 100 mg/kg): 139341.0 ± 36760.1 ng·h/mL; Cmax ([2]; 100 mg/kg): 8895.5 ± 1516.8 ng/mL; MRT ([2]; 100 mg/kg): 7.66 ± 0.99 h; concentration at 2 h ([2]; 10 mg/kg): 560 ± 106 ng/g; Kp at 2 h ([2]; 10 mg/kg): 0.7; concentration at 24 h ([2]; 10 mg/kg): 5.2 ± 0.2 ng/g; concentration at 2 h ([2]; 30 mg/kg): 3830 ± 935 ng/g; Kp at 2 h ([2]; 30 mg/kg): 1.7; concentration at 24 h ([2]; 30 mg/kg): 8.9 ± 3.8 ng/g; concentration at 2 h ([2]; 100 mg/kg): 33600 ± 19300 ng/g; Kp at 2 h ([2]; 100 mg/kg): 6; concentration at 24 h ([2]; 100 mg/kg): 1860 ± 2400 ng/g
